Drawing on the supplement of paper PMC10307832, this text covers relative viability for four cell lines.

What all share (test): relative viability (nuclei count vs DMSO), 5 days (fraction); higher = more cells survive
Compound in the test “Bexarotene + Palbociclib”: C=C(c1ccc(C(=O)O)cc1)c1cc2c(cc1C)C(C)(C)CCC2(C)C [Bexarotene] + CC(=O)c1c(C)c2cnc(Nc3ccc(N4CCNCC4)cn3)nc2n(C2CCCC2)c1=O [Palbociclib] (partner 0.5 µM)
Summed up: (§1)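 Lung cancer cell lines, seeded in 1536-well plates, were treated the following day by pin tool with a single drug or with five library-drug doses (not always all listed) in √10 steps on top of a fixed anchor-drug dose. Cells were fixed and nuclei stained in one step after 5 days, and nuclei were counted. Relative viability is the nuclei count for treated wells divided by that for vehicle wells, reported as medians of duplicate plates.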

Compound in the test “Bexarotene + Crizotinib”: C=C(c1ccc(C(=O)O)cc1)c1cc2c(cc1C)C(C)(C)CCC2(C)C [Bexarotene] + C[C@@H](Oc1cc(-c2cnn(C3CCNCC3)c2)cnc1N)c1c(Cl)ccc(F)c1Cl [Crizotinib] (partner 1 µM)
A digest of the protocol: as §1

Compound in the test “Bexarotene + AZD7762”: C=C(c1ccc(C(=O)O)cc1)c1cc2c(cc1C)C(C)(C)CCC2(C)C [Bexarotene] + NC(=O)Nc1cc(-c2cccc(F)c2)sc1C(=O)N[C@H]1CCCNC1 [AZD7762] (partner 0.2 µM)
A digest of the protocol:
as §1

Compound in the test “Bexarotene + Vorinostat”: C=C(c1ccc(C(=O)O)cc1)c1cc2c(cc1C)C(C)(C)CCC2(C)C [Bexarotene] + O=C(CCCCCCC(=O)Nc1ccccc1)NO [Vorinostat] (partner 1 µM)
A digest of the protocol: as §1

As for HOP-62, the relative viability in the test with Bexarotene + Palbociclib (first compound 0.08 µM) was 0.502; with Bexarotene + Palbociclib (first compound 0.253 µM), 0.516; with Bexarotene + Palbociclib (first compound 0.8 µM), 0.451; with Bexarotene + Palbociclib (first compound 2.53 µM), 0.409; in the test with Bexarotene + Palbociclib (first compound 8 µM), 0.491; with Bexarotene + Crizotinib (first compound 0.08 µM), 1.18. Moreover, the relative viability with Bexarotene + Crizotinib (first compound 0.253 µM) turned out to be 0.915; in the test with Bexarotene + Crizotinib (first compound 0.8 µM) it was 0.953; with Bexarotene + Crizotinib (first compound 2.53 µM), 1.09; with Bexarotene + Crizotinib (first compound 8 µM), 0.944; with Bexarotene + AZD7762 (first compound 0.08 µM) it was 0.626; with Bexarotene + AZD7762 (first compound 0.253 µM), 1.04. The relative viability with Bexarotene + AZD7762 (first compound 0.8 µM) is 0.718; with Bexarotene + AZD7762 (first compound 2.53 µM), 0.412; in the test with Bexarotene + AZD7762 (first compound 8 µM), 0.669; with Bexarotene + Vorinostat (first compound 0.08 µM) it was 0.808; with Bexarotene + Vorinostat (first compound 0.253 µM), 0.831; with Bexarotene + Vorinostat (first compound 0.8 µM), 0.709. Moreover, the values for the relative viability with Bexarotene + Vorinostat (first compound 2.53 µM) and with Bexarotene + Vorinostat (first compound 8 µM) were 0.555 and 0.624, respectively.

Consider LC-2-ad, for which the relative viability with Bexarotene + Palbociclib (first compound 0.08 µM) was found to be 0.427; in the test with Bexarotene + Palbociclib (first compound 0.253 µM), 0.5; with Bexarotene + Palbociclib (first compound 0.8 µM), 0.473; in the test with Bexarotene + Palbociclib (first compound 2.53 µM) it was 0.434; with Bexarotene + Palbociclib (first compound 8 µM), 0.46; in the test with Bexarotene + Crizotinib (first compound 0.08 µM), 0.443. Further, the relative viability was 0.46 with Bexarotene + Crizotinib (first compound 0.253 µM); 0.44 with Bexarotene + Crizotinib (first compound 0.8 µM); 0.504 with Bexarotene + Crizotinib (first compound 2.53 µM); 0.412 with Bexarotene + Crizotinib (first compound 8 µM); 0.87 in the test with Bexarotene + AZD7762 (first compound 0.08 µM); 0.907 in the test with Bexarotene + AZD7762 (first compound 0.253 µM). The relative viability was 0.875 in the test with Bexarotene + AZD7762 (first compound 0.8 µM); 0.867 with Bexarotene + AZD7762 (first compound 2.53 µM); 0.928 with Bexarotene + AZD7762 (first compound 8 µM); 0.82 with Bexarotene + Vorinostat (first compound 0.08 µM); 0.845 with Bexarotene + Vorinostat (first compound 0.253 µM); 0.744 with Bexarotene + Vorinostat (first compound 0.8 µM). Moreover, the values for the relative viability in the test with Bexarotene + Vorinostat (first compound 2.53 µM) and with Bexarotene + Vorinostat (first compound 8 µM) were 0.703 and 0.665, respectively.

As to LCLC-97TM1, the relative viability in the test with Bexarotene + Palbociclib (first compound 0.08 µM) is 0.211; with Bexarotene + Palbociclib (first compound 0.253 µM), 0.245; in the test with Bexarotene + Palbociclib (first compound 0.8 µM) it was 0.168; with Bexarotene + Palbociclib (first compound 2.53 µM), 0.177; with Bexarotene + Palbociclib (first compound 8 µM) it was 0.185; with Bexarotene + Crizotinib (first compound 0.08 µM) it was 0.478. Also, the relative viability with Bexarotene + Crizotinib (first compound 0.253 µM) came to 0.343; in the test with Bexarotene + Crizotinib (first compound 0.8 µM), 0.576; with Bexarotene + Crizotinib (first compound 2.53 µM) it was 0.409; with Bexarotene + Crizotinib (first compound 8 µM) it was 0.472; in the test with Bexarotene + AZD7762 (first compound 0.08 µM) it was 0.252; with Bexarotene + AZD7762 (first compound 0.253 µM), 0.35. Besides, the relative viability in the test with Bexarotene + AZD7762 (first compound 0.8 µM) was found to be 0.398; in the test with Bexarotene + AZD7762 (first compound 2.53 µM), 0.263; with Bexarotene + AZD7762 (first compound 8 µM), 0.237; with Bexarotene + Vorinostat (first compound 0.08 µM), 1.02; in the test with Bexarotene + Vorinostat (first compound 0.253 µM), 0.804; with Bexarotene + Vorinostat (first compound 0.8 µM), 0.586. For the same cell line, the relative viability was 0.656 with Bexarotene + Vorinostat (first compound 2.53 µM) and 0.678 with Bexarotene + Vorinostat (first compound 8 µM).

As to LCLC-103H, the relative viability stood at 0.495 with Bexarotene + Palbociclib (first compound 0.08 µM); 0.544 with Bexarotene + Palbociclib (first compound 0.253 µM); 0.453 with Bexarotene + Palbociclib (first compound 0.8 µM); 0.476 with Bexarotene + Palbociclib (first compound 2.53 µM); 0.475 with Bexarotene + Palbociclib (first compound 8 µM); 1.15 in the test with Bexarotene + Crizotinib (first compound 0.08 µM). Moreover, the relative viability was 1.21 with Bexarotene + Crizotinib (first compound 0.253 µM); 1.03 with Bexarotene + Crizotinib (first compound 0.8 µM); 0.999 with Bexarotene + Crizotinib (first compound 2.53 µM); 1.12 in the test with Bexarotene + Crizotinib (first compound 8 µM); 0.807 with Bexarotene + AZD7762 (first compound 0.08 µM); 0.78 with Bexarotene + AZD7762 (first compound 0.253 µM). Besides, the relative viability turned out to be 0.64 with Bexarotene + AZD7762 (first compound 0.8 µM); 0.796 with Bexarotene + AZD7762 (first compound 2.53 µM); 0.842 in the test with Bexarotene + AZD7762 (first compound 8 µM); 0.891 with Bexarotene + Vorinostat (first compound 0.08 µM); 0.976 with Bexarotene + Vorinostat (first compound 0.253 µM); 0.691 with Bexarotene + Vorinostat (first compound 0.8 µM). The relative viability with Bexarotene + Vorinostat (first compound 2.53 µM) came out at 0.771; with Bexarotene + Vorinostat (first compound 8 µM), 0.875.
